# According to patent US20260356851A1, “TRICYCLIC COMPOUNDS AND USES THEREOF” (HUTCHMED LIMITED, priority 2023, published 2026):
# Key:
# Type in all cases: cell-based
# [1] = molecular target: T1, pERK1/2 (Thr202/Tyr204), PANC-1 (KRAS G121D) (Homo sapiens, UniProt P01116, G12D); assay: Assay of intracellular pERK1/2 (Thr202/Tyr204) phosphorylation in PANC-1 cells (KRAS G12D); settings: pERK1/2, 2 days, read-out: PANC-1 (KRAS G12D) IC50
# T1 construct: pERK1/2 HTRF read-out
# Outline: (§1)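 HTRF detection of Thr202/Tyr204-phosphorylated ERK1/2 (665/615 nm ratio) in lysates from cells treated 2 days with serially 3-fold diluted compound.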
# [2] = molecular target: T2, pERK1/2 (Thr202/Tyr204), NCI-1H358 (KRAS G12C) (Homo sapiens, UniProt P01116, G12C); assay: Assay of intracellular pERK1/2 (Thr202/Tyr204) phosphorylation in NCI-H358 cells (KRAS G12C); settings: pERK1/2, 2 days, read-out: NCI-H358 (KRAS G12C) IC50
# T2 construct: pERK1/2 HTRF read-out
# T2 sequence (P01116 1-188 isoform P01116-2 G12C): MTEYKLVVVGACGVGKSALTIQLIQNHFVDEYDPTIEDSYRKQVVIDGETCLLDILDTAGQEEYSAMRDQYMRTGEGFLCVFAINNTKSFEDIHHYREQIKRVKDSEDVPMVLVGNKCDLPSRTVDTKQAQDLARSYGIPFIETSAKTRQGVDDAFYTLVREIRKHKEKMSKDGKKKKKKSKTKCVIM
# Outline: as §1
# [3] = molecular target: T3, pERK1/2 (Thr202/Tyr204), NCI-1H441 (KRAS G12V) (Homo sapiens, UniProt P01116, G12V); assay: Assay of intracellular pERK1/2 (Thr202/Tyr204) phosphorylation in NCI-H441 cells (KRAS G12V); settings: pERK1/2, 2 days, read-out: NCI-H441 (KRAS G12V) IC50
# T3 construct: pERK1/2 HTRF read-out
# T3 sequence (P01116 1-188 isoform P01116-2 G12V): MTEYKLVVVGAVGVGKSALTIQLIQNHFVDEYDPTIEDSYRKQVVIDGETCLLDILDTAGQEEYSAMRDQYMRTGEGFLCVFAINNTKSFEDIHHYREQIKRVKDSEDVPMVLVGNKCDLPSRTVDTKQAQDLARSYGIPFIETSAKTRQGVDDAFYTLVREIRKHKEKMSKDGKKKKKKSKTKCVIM
# Outline: as §1
# T1 sequence (P01116 1-188 isoform P01116-2 G12D): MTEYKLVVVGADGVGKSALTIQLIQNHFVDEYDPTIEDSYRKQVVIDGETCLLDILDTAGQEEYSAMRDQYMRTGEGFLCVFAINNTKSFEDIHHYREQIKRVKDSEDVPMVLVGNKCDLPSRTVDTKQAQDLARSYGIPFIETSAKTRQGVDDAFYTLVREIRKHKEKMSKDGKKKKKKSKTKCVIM
SMILES,IC50 [1] [nM],IC50 [2] [nM],IC50 [3] [nM]
"Cc1c(F)c(N)cc(-c2nc3c4c(nc(OC[C@@]56CCCN5C[C@H](F)C6)nc4c2F)N(C(C)c2cccnc2N)CCO3)c1C(F)(F)F (single isomer, unassigned) [Compound 138, 3-((R or S)-1-(5-(5-amino-4-fluoro-3-methyl-2-(trifluoromethyl)phenyl)-4-fluoro-2-(((2R,7aS)-2-fluorotetrahydro-1H-pyrrolizin-7a(5H)-yl)methoxy)-8,9-dihydro-10H-7-oxa-1,3,6,10-tetraazacyclohepta[de]naphthalen-10-yl)ethyl)pyridin-2-amine]",30,13,17
[2H]C1([2H])CC[C@@]2(C([2H])([2H])Oc3nc4c5c(nc(-c6cc(N)ccc6C(F)(F)F)c(F)c5n3)OCCN4C(C)c3cccnc3N)C[C@@H](F)CN12 (stereo partly drawn) [Compound 129],26,0.9,2
[2H]C1([2H])CC[C@@]2(COc3nc4c5c(nc(-c6cc(N)cc(C)c6C(F)(F)F)c(F)c5n3)OCCN4C(C)c3cccnc3N)C[C@@H](F)CN12 (stereo partly drawn) [Compound 231],0.8,0.2,0.2
"[2H]C1([2H])CC[C@@]2(COc3nc4c5c(nc(-c6cc(N)c(F)c(Cl)c6C(F)(F)F)c(F)c5n3)OC([2H])([2H])C([2H])([2H])N4C(C)c3cccnc3N)C[C@@H](F)CN12 (single isomer, unassigned) [Compound 223, 3-((R or S)-1-(5-(5-amino-3-chloro-4-fluoro-2-(trifluoromethyl)phenyl)-4-fluoro-2-(((2R,7aS)-2-fluorotetrahydro-1H-pyrrolizin-7a(5H)-yl-5,5-d2)methoxy)-8,9-dihydro-10H-7-oxa-1,3,6,10-tetraazacyclohepta[de]naphthalen-10-yl-8,8,9,9-d4)ethyl)pyridin-2-amine]",20,2,7
"Cc1c(F)c(N)cc(-c2nc3c4c(nc(OC[C@@]56CCCN5C[C@H](F)C6)nc4c2F)N([C@H](C)c2cccnc2N)CCO3)c1C(F)(F)F (single isomer, unassigned) [Compound 137]",0.9,0.1,0.2
"CC(c1cccnc1N)N1c2nc(OC[C@@]34CCCN3C[C@H](F)C4)nc3c(F)c(-c4cc(O)cc5ccc(F)c(F)c45)nc(c23)OC[C@@H]1C (single isomer, unassigned) [Compound 276, 4-((S)-10-((R or S)-1-(2-aminopyridin-3-yl)ethyl)-4-fluoro-2-(((2R,7aS)-2-fluorotetrahydro-1H-pyrrolizin-7a(5H)-yl)methoxy)-9-methyl-9,10-dihydro-8H-7-oxa-1,3,6,10-tetraazacyclohepta[de]naphthalen-5-yl)-5,6-difluoronaphthalen-2-ol]",> 100,77,> 100
CC(c1cccnc1N)N1CCOc2nc(-c3cc(O)cc4ccc(F)c(F)c34)c(F)c3nc(O)nc1c23 (stereo not drawn) [Compound 9],> 1000,> 1000,> 1000
"Cc1c(F)c(N)cc(-c2nc3c4c(nc(OC[C@@H]5C[C@@H](F)CN5C)nc4c2F)N(C(C)c2cccnc2N)[C@@H](C)CO3)c1C(F)(F)F (single isomer, unassigned) [Compound 277, 3-((R or S)-1-((S)-5-(5-amino-4-fluoro-3-methyl-2-(trifluoromethyl)phenyl)-4-fluoro-2-(((2S,4R)-4-fluoro-1-methylpyrrolidin-2-yl)methoxy)-9-methyl-8,9-dihydro-10H-7-oxa-1,3,6,10-tetraazacyclohepta[de]naphthalen-10-yl)ethyl)pyridin-2-amine]",> 100,93,> 100
Cc1cc2[nH]ncc2c(-c2nc3c4c(nc(OC[C@@]56CCCN5C[C@H](F)C6)nc4c2F)N(C(C)c2cccnc2N)[C@H]2CCC[C@H]2O3)c1C(F)(F)F (stereo partly drawn) [Compound 389],> 100,60,> 100
Cc1cc2[nH]nc(C)c2c(-c2nc3c4c(nc(OC[C@@]56CCCN5C[C@H](F)C6)nc4c2F)N(C(C)c2cccnc2N)[C@@H](C)CO3)c1C(F)(F)F (stereo partly drawn) [Compound 377],2,2,5
"Cc1cc2[nH]ncc2c(-c2nc3c4c(nc(O)nc4c2F)N(C(C)c2cccnc2N)CCO3)c1C (stereo not drawn) [Compound 3, 10-(1-(2-Aminopyridin-3-yl)ethyl)-5-(5,6-dimethyl-1H-indazol-4-yl)-4-fluoro-9,10-dihydro-8H-7-oxa-1,3,6,10-tetraazacyclohepta[de]naphthalen-2-ol]",> 1000,> 1000,> 1000
"CC(c1cccnc1N)N1c2nc(OC[C@@]34CCCN3C[C@H](F)C4)nc3c(F)c(-c4cc(N)cc(Cl)c4C(F)(F)F)nc(c23)OC[C@@H]1C (single isomer, unassigned) [Compound 270, 3-((R or S)-1-((S)-5-(5-amino-3-chloro-2-(trifluoromethyl)phenyl)-4-fluoro-2-(((2R,7aS)-2-fluorotetrahydro-1H-pyrrolizin-7a(5H)-yl)methoxy)-9-methyl-8,9-dihydro-10H-7-oxa-1,3,6,10-tetraazacyclohepta[de]naphthalen-10-yl)ethyl)pyridin-2-amine]",0.3,0.3,0.7
Cc1cc2[nH]ncc2c(-c2nc3c4c(nc(OCC5(CN(C)C)CC5)nc4c2F)N(C(C)c2cccnc2N)CCO3)c1C (stereo not drawn) [Compound 5],> 1000,710,> 1000
"[2H]C([2H])([2H])N1CCC[C@H]1COc1nc2c3c(nc(-c4cc(N)cc(C)c4C(F)(F)F)c(F)c3n1)OCCN2C(C)c1cccnc1N (single isomer, unassigned) [Compound 95, 3-((R or S)-1-(5-(5-amino-3-methyl-2-(trifluoromethyl)phenyl)-4-fluoro-2-(((S)-1-(methyl-d3)pyrrolidin-2-yl)methoxy)-8,9-dihydro-10H-7-oxa-1,3,6,10-tetraazacyclohepta[de]naphthalen-10-yl)ethyl)pyridin-2-amine]",24,0.8,2
"CC(c1cccnc1N)N1CCOc2nc(-c3cc(O)cc(F)c3C3CC3)c(F)c3nc(OC[C@@H]4CC(F)(F)CN4C)nc1c23 (single isomer, unassigned) [Compound 48, 3-(10-((R or S)-1-(2-aminopyridin-3-yl)ethyl)-2-(((S)-4,4-difluoro-1-methylpyrrolidin-2-yl)methoxy)-4-fluoro-9,10-dihydro-8H-7-oxa-1,3,6,10-tetraazacyclohepta[de]naphthalen-5-yl)-4-cyclopropyl-5-fluorophenol]",> 1000,> 1000,> 1000
"CC(c1cccnc1N)N1CCOc2nc(-c3cc(O)cc(Cl)c3C(F)(F)F)c(F)c3nc(OC[C@@]45CCCN4C[C@H](F)C5)nc1c23 (single isomer, unassigned) [Compound 58, 3-(10-((R or S)-1-(2-aminopyridin-3-yl)ethyl)-4-fluoro-2-(((2R,7aS)-2-fluorotetrahydro-1H-pyrrolizin-7a(5H)-yl)methoxy)-9,10-dihydro-8H-7-oxa-1,3,6,10-tetraazacyclohepta[de]naphthalen-5-yl)-5-chloro-4-(trifluoromethyl)phenol]",147,3,5
"Cc1c(F)c(N)cc(-c2nc3c4c(nc(OC[C@@]56CCCN5C[C@H](F)C6)nc4c2F)N(C(C)c2cccnc2N)C[C@H](C)O3)c1C(F)(F)F (single isomer, unassigned) [Compound 254, 3-((R or S)-1-((S)-5-(5-amino-4-fluoro-3-methyl-2-(trifluoromethyl)phenyl)-4-fluoro-2-(((2R,7aS)-2-fluorotetrahydro-1H-pyrrolizin-7a(5H)-yl)methoxy)-8-methyl-8,9-dihydro-10H-7-oxa-1,3,6,10-tetraazacyclohepta[de]naphthalen-10-yl)ethyl)pyridin-2-amine]",43,2,10
Cc1c(C(F)(F)F)c(-c2nc3c4c(nc(OC[C@@]56CCCN5C[C@H](F)C6)nc4c2F)N(C(C)c2cccnc2N)[C@@H](C)CO3)c2cn[nH]c2c1F (stereo partly drawn) [Compound 363],0.3,0.2,0.3
Cc1c(F)c(N)cc(-c2nc3c4c(nc(OC[C@@]56CCCN5C[C@H](F)C6)nc4c2F)N(C2(c4cccnc4N)CC2)CCO3)c1C(F)(F)F [Compound 187],> 100,63,44
"CC(c1cccnc1N)N1CCOc2nc(-c3cc(N)cc(F)c3C(F)(F)F)c(F)c3nc(OC[C@@H]4CCCN4C)nc1c23 (single isomer, unassigned) [Compound 91, 3-((R or S)-1-(5-(5-amino-3-fluoro-2-(trifluoromethyl)phenyl)-4-fluoro-2-(((S)-1-methylpyrrolidin-2-yl)methoxy)-8,9-dihydro-10H-7-oxa-1,3,6,10-tetraazacyclohepta[de]naphthalen-10-yl)ethyl)pyridin-2-amine]",> 100,> 100,> 100
Cc1c(C(F)(F)F)c(-c2nc3c4c(nc(OC[C@@]56CCCN5C[C@H](F)C6)nc4c2F)N(C(C)c2cccnc2N)[C@@H](C)CO3)c2c(C)n[nH]c2c1F (stereo partly drawn) [Compound 380],1,1,2
"CC(c1cccnc1N)N1c2nc(OC[C@@]34CCCN3C[C@H](F)C4)nc3c(F)c(-c4c(C(F)(F)F)c(Cl)cc5[nH]ncc45)nc(c23)OC[C@@H]1C (single isomer, unassigned) [Compound 330]",0.3,0.4,0.5
